Assay: molar heat capacity at constant pressure
Details: 101.33 kPa

OC[C@@H](O)C(O)[C@H](O)CO [D-arabitol]
molar heat capacity at constant pressure [J/K/mol]
Details | Small sample (50 mg) DSC | relaxation calorimetry
250.15 K, Crystal | 167.62 | –
251.15 K, Crystal | 168.09 | –
252.02 K, Crystal | – | 171.93
252.15 K, Crystal | 168.72 | –
253.15 K, Crystal | 169.42 | –
254.15 K, Crystal | 170.21 | –
255.15 K, Crystal | 170.83 | –
256.15 K, Crystal | 171.49 | –
257.15 K, Crystal | 172.29 | –
258.15 K, Crystal | 172.95 | –
259.15 K, Crystal | 173.8 | –
260 K, Crystal | – | 176.9
260.15 K, Crystal | 174.49 | –
261.15 K, Crystal | 175.07 | –
262.08 K, Crystal | – | 178.58
262.15 K, Crystal | 175.71 | –
263.15 K, Crystal | 176.2 | –
264.15 K, Crystal | 176.94 | –
265.15 K, Crystal | 177.53 | –
266.15 K, Crystal | 177.9 | –
267.15 K, Crystal | 178.76 | –
268.15 K, Crystal | 179.47 | –
269.15 K, Crystal | 180.14 | –
270 K, Crystal | – | 183.17
270.15 K, Crystal | 180.88 | –
271.15 K, Crystal | 181.55 | –
272.1 K, Crystal | – | 184.8
272.15 K, Crystal | 182.34 | –
273.15 K, Crystal | 183.05 | 185.17
274.15 K, Crystal | 183.84 | –
275.15 K, Crystal | 184.43 | –
276.15 K, Crystal | 185.01 | –
277.15 K, Crystal | 185.89 | –
278.15 K, Crystal | 186.82 | –
279.15 K, Crystal | 187.46 | –
280 K, Crystal | – | 189.54
280.15 K, Crystal | 187.87 | –
281.15 K, Crystal | 188.79 | –
282.15 K, Crystal | 189.61 | –
282.16 K, Crystal | – | 190.77
283.15 K, Crystal | 190.26 | –
284.15 K, Crystal | 190.76 | –
285.15 K, Crystal | 191.48 | –
286.15 K, Crystal | 192.29 | –
287.15 K, Crystal | 192.88 | –
288.15 K, Crystal | 193.55 | –
289.15 K, Crystal | 194.1 | –
290 K, Crystal | – | 196
290.15 K, Crystal | 195.02 | –
291.15 K, Crystal | 195.84 | –
292.15 K, Crystal | 196.49 | –
292.31 K, Crystal | – | 197.61
293.15 K, Crystal | 197.3 | –
294.15 K, Crystal | 198.27 | –
295.15 K, Crystal | 198.8 | –
296.15 K, Crystal | 199.7 | –
297.15 K, Crystal | 200.51 | –
298.15 K, Crystal | 201.09 | 201.35
299.15 K, Crystal | 201.8 | –
300 K, Crystal | – | 202.57
300.15 K, Crystal | 202.43 | –
301.15 K, Crystal | 203.27 | –
302.15 K, Crystal | 203.89 | –
302.32 K, Crystal | – | 203.84
303.15 K, Crystal | 204.69 | –
304.15 K, Crystal | 205.64 | –
305 K, Crystal | 206.38 | –
305.15 K, Crystal | 206.52 | –
306.15 K, Crystal | 207.29 | –
307.15 K, Crystal | 207.99 | –
308.15 K, Crystal | 209.04 | –
309.15 K, Crystal | 210.24 | –
310 K, Crystal | 210.77 | –
310.15 K, Crystal | 211.11 | –
311.15 K, Crystal | 212.09 | –
312.15 K, Crystal | 213.04 | –
313.15 K, Crystal | 213.93 | –
314.15 K, Crystal | 214.62 | –
315 K, Crystal | 215.3 | –
315.15 K, Crystal | 215.49 | –
316.15 K, Crystal | 216.44 | –
317.15 K, Crystal | 217.32 | –
318.15 K, Crystal | 218.08 | –
319.15 K, Crystal | 218.98 | –
320 K, Crystal | 219.92 | –
320.15 K, Crystal | 219.94 | –
321.15 K, Crystal | 220.72 | –
322.15 K, Crystal | 221.63 | –
323.15 K, Crystal | 222.6 | –
324.15 K, Crystal | 223.41 | –
325 K, Crystal | 224.62 | –
325.15 K, Crystal | 224.24 | –
326.15 K, Crystal | 225.48 | –
327.15 K, Crystal | 226.61 | –
328.15 K, Crystal | 227.57 | –
329.15 K, Crystal | 228.54 | –
330 K, Crystal | 229.51 | –
330.15 K, Crystal | 229.69 | –
331.15 K, Crystal | 231.05 | –
332.15 K, Crystal | 232.16 | –
333.15 K, Crystal | 233.08 | –
334.15 K, Crystal | 234.14 | –
335 K, Crystal | 234.75 | –
335.15 K, Crystal | 235.21 | –
336.15 K, Crystal | 236.36 | –
337.15 K, Crystal | 237.46 | –
338.15 K, Crystal | 238.56 | –
339.15 K, Crystal | 239.77 | –
340 K, Crystal | 240.61 | –
340.15 K, Crystal | 240.89 | –
341.15 K, Crystal | 242.17 | –
342.15 K, Crystal | 243.41 | –
343.15 K, Crystal | 244.65 | –
344.15 K, Crystal | 245.91 | –
345 K, Crystal | 247.41 | –
345.15 K, Crystal | 247.41 | –
346.15 K, Crystal | 248.94 | –
350 K, Crystal | 255.58 | –
394.05 K, Liquid | 448.1 | –
394.15 K, Liquid | 448.11 | –
395 K, Liquid | 447.62 | –
395.15 K, Liquid | 447.51 | –
396.15 K, Liquid | 447.26 | –
397.15 K, Liquid | 446.68 | –
398.15 K, Liquid | 446.29 | –
399.15 K, Liquid | 446.43 | –
400 K, Liquid | 446.52 | –
400.15 K, Liquid | 446.4 | –
401.15 K, Liquid | 446.31 | –
402.15 K, Liquid | 446.59 | –
403.15 K, Liquid | 447.05 | –
404.15 K, Liquid | 446.97 | –
405 K, Liquid | 447.4 | –
405.15 K, Liquid | 447.29 | –
406.15 K, Liquid | 447.83 | –
407.15 K, Liquid | 447.84 | –
408.15 K, Liquid | 448.15 | –
409.15 K, Liquid | 448.6 | –
410 K, Liquid | 449.23 | –
410.15 K, Liquid | 448.95 | –
411.15 K, Liquid | 449.41 | –
412.15 K, Liquid | 449.97 | –
413.15 K, Liquid | 450.76 | –
414.15 K, Liquid | 451.47 | –
415 K, Liquid | 452.02 | –
415.15 K, Liquid | 452.79 | –
416.15 K, Liquid | 453.35 | –
417.15 K, Liquid | 453.87 | –
418.15 K, Liquid | 454.54 | –
419.15 K, Liquid | 456.24 | –
420 K, Liquid | 455.76 | –
420.15 K, Liquid | 456.5 | –
421.15 K, Liquid | 457.07 | –
422.15 K, Liquid | 457.63 | –
423.15 K, Liquid | 457.94 | –
424.15 K, Liquid | 458.28 | –
